Measured values reported in publication PMC4658428 (Frontiers in Microbiology, 2015).

How the values were obtained:
[1] = tested on: S. meliloti strain SMP2A (ΔldtRSMc-pBBR1MCS-5); format: cell-based
[2] = tested on: S. meliloti strain SMP2B (ΔldtRSMc-pBBR1MCS-5::LdtR); format: cell-based
[3] = tested on: WT LdtR, lacZ reporter in B. subtilis strain BS6; format: cell-based, Bacillus subtilis
[4] = tested on: B. subtilis cells; format: cell-based, Bacillus subtilis
[5] = tested on: S. meliloti strain SMP5 (1021-pBBR1MCS-5); format: cell-based, Sinorhizobium meliloti
[6] = tested on: WT LdtR; format: biochemical, Liberibacter asiaticus
[7] = biological target: LdtR Wild type (Candidatus Liberibacter asiaticus, UniProt A0ABN4AZS1)
[8] = tested on: WT LdtR; format: binding, Liberibacter asiaticus
[9] = tested on: LdtR; settings: cited from earlier work
[10] = biological target: ST1710; settings: read-out: affinity value; cited from earlier work
[11] = biological target: LdtR wild type (Liberibacter asiaticus); test: SEC
[12] = tested on: LdtR WT (Liberibacter asiaticus); test: EMSA

CCc1oc2ccccc2c1C(=O)c1cc(Br)c(O)c(Br)c1 [benzbromarone]
Growth rate constant, k [1]: 0.042 ± 0.002 generations/h | Mean generation time [1]: 23.8 h | Growth rate constant, k [2]: 0.045 ± 0.002 generations/h | Mean generation time [2]: 22.2 h | increase of the duplication time on addition of benzbromarone [2]: 25% | reduction of β-galactosidase activity [3]: 40% | concentrations found to be toxic to the cells [4]: higher than 5 μM | Growth rate constant, k [5]: 0.044 ± 0.003 generations/h | Mean generation time [5]: 22.7 h | increase of the duplication time on addition of benzbromarone [5]: 39% | excess of benzbromarone at which the LdtR:DNA complex is disrupted [6]: 10 fold excess | N [7]: 0.34 ± 0.08 | ΔG [7]: -7.5 kcal/mol | ΔH [7]: -3.0 ± 1.0 kcal/mol | ΔS [7]: 14.9 cal/mol/deg | change in melting temperature (ΔTm) [8]: -1.8 ± 0.2 °C | decrease of melting temperature [8]: 3.6 ± 0.2 °C | effect on LdtR binding to DNA [9]: inhibitors of LdtR binding to DNA

CC[n+]1c(-c2ccccc2)c2cc(N)ccc2c2ccc(N)cc21 [ethidium]
Kd [10]: 13.7 µM

CC[C@H](c1ccc(O)cc1)[C@@H](CC)c1ccc(O)cc1 [hexestrol]
effect on LdtR binding to DNA [9]: inhibitors of LdtR binding to DNA

O=C(CCc1ccc(O)cc1)c1c(O)cc(O)cc1O [phloretin]
effect on LdtR binding to DNA [9]: inhibitors of LdtR binding to DNA

LdtR wild type (natural protein)
stoichiometry N [11]: 2

PldtP
K half [12]: 200 nM
